Assays:
[1] = tested on: rat hepatocytes (CC1-Cell line); test: Fructose-derived AGE-mediated intracellular ROS generation, DCFH-DA technique; assay type: cell-based
Procedure: Methodology: DCFH-DA (Dichlorofluorescin diacetate), H2O2 (Hydrogen peroxide), DMSO (Dimethyl sulfoxide) and PBS (Phosphate buffer saline) were obtained from Sigma, St. Louis, Mo., USA. 96-well black fluorescence plates (Tissue culture treated) were purchased from Thermo Fisher Scientific, Waltham, Mass., USA.
Assay Method: Briefly, rat hepatocytes (CC1-Cell line, 6×10^4 cells/mL) were loaded on a black fluorescence 96-well tissue culture treated plate for 24 hours at 37° C. in an incubator, containing 5% CO2. The cells were serum starved for another 24 hours by adding serum free medium-MEM (minimum essential medium) prior to treatment with fructose-derived AGE and the test compounds, anthranilic acid derivatives. Initially the cells were treated with non fluorescent probe, DCFH-DA (10 μM) in the dark for 45 mins. Following incubation the cells were washed twice with 1×PBS and were treated with different concentrations of the AGEs, such as 0, 50, 100, and 200 μg/mL, to evaluate the AGEs influence on the generation of intracellular ROS in a concentration dependent manner. The cells were then treated with the test compounds (novel anthranilic acid derivatives) at various concentrations 24, 33, and 49 μM, co-incubated with the AGE (200 μg/mL) for 24 hours at 37° C. At the end of the incubation, just before 1 hour, the cells were incubated with H2O2 (0.5%) as a control.
Fluorescence Detection: The intensity of green fluorescence, which is emitted upon the oxidation of the probe in the presence of intracellular ROS, is measured at the excitation and emission wavelength of 490 nm and 520 nm, respectively, by Spectra Max Spectrophotometer, Applied Biosystems, CA, USA.
Where, • Test compound=anthranilic acid derivative • Blank=Untreated normal rat hepatocytes • Control=Hepatocytes treated with 0.5% H2O2

[2] = MTT-based cytotoxicity assay; settings: mouse, 3T3 mouse fibroblast cells, 3T3 cell-line, read-out: Cytotoxicity % Inhibition
Excerpt: Many studies have highlighted the contribution of AGEs in disease states and primarily investigated their deleterious effects and their possible mechanism of actions. Therefore, there is a need of synthesis and investigation of novel antiglycation agents, which are devoid of any adverse effects, may present a therapeutic approach for the delaying and treatment of premature aging and vascular abnormalities in diabetic patients. In the current study, we explored the novel antiglycation agents (1-18), which are potent inhibitors against the glycation process, and belong to anthranilic acid derivatives. The inhibitors were identified by using high throughput screening method, fluorescence-based antiglycation assay (see Table-1). The cytotoxicity studies were performed against mouse fibroblast cell-line (3T3 Cell-line) by employing MTT-based cytotoxicity assay. The mechanistic studies were also conducted to evaluate the effect of novel antiglycation inhibitors on AGEs-induced intracellular reactive oxygen species generation (ROS) and associated impaired proliferation in rat hepatocytes via dichlorofluorescin diacetate (DCFH-DA) and MTT-based cytotoxicity assay, respectively. Previously, these novel antiglycation inhibitors were known for anticancer and anti-inflammatory activities (Congiu C, et al., 2005).

[3] = tested on: rat hepatocytes (CC1-Cell line); test: AGE-mediated reduced growth of rat hepatocytes, MTT assay; assay type: cell-based; settings: for Absorbance (Average): 540 nm
Excerpt: Methodology: Normal, rat hepatocytes (CC1-Cell line) was purchased from ATCC, Manassas, Va., USA. MEM (Minimum Essential Medium) with L-glutamine, trypsin-EDTA, sodium bicarbonate and penicillin-streptomycin were obtained from Sigma, St. Louis, Mo., USA. 96-well tissue culture treated, sterile, round bottom plates were acquired from Thermo Fisher Scientific, Waltham, Mass., USA.
All the treatment with the AGEs and the test compound were done in SFM (serum free medium), and Triton X-100 treated hepatocytes were used as a blank, while untreated normal cells were used as a control.
Determination of Cellular Proliferation: At the end of the incubation, the sample solution was removed and MTT-dye ((2 mg/mL, 50 μL) was added to each well. The final reaction volume (200 μL) was reconstituted by MEM (serum free-Minimum essential media). The plate was incubated for 4 hours at 37° C. in 5% CO2 containing incubator. Following incubation, the serum free medium was removed and the crystals were dissolved by adding DMSO (100 μL) in each well.
Absorbance Detection: The absorbance of the colored solution was measured at 540 nm by Spectra Max Spectrophotometer, Applied Biosystems, CA, USA.
Where, • Test Compound=Novel anthranilic acid derivative • Blank=Hepatocytes treated with Triton X-100 • Control=Untreated normal rat hepatocytes

[4] = target: T1, Human serum albumin (HSA) glycation by fructose (AGE-HSA) (Homo sapiens, UniProt P02768); test: In-vitro antiglycation activity against HSA glycation (fluorescence-based antiglycation assay); assay type: biochemical
T1 construct: purchased Sigma Aldrich, St. Louis, Mo., USA
T1 sequence (P02768 25-609): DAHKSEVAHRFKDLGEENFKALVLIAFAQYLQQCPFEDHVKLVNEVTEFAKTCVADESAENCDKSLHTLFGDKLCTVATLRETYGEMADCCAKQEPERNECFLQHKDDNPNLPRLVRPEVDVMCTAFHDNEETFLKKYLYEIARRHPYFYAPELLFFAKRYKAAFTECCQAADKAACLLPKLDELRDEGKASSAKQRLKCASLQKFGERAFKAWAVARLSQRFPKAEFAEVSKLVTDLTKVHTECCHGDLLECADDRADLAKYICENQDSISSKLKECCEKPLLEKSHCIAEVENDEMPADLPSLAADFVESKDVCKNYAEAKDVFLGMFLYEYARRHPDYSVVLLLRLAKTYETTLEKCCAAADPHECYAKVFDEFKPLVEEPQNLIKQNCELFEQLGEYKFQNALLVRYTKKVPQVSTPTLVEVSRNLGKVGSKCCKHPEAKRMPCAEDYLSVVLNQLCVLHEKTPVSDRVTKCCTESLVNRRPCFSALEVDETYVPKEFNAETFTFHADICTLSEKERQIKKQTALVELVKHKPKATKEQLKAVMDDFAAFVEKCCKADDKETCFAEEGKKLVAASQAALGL
Procedure: Methodology: Human serum albumin (HSA) free from essential fatty acids and rutin were obtained from Sigma Aldrich, St. Louis, Mo., USA. D-fructose, sodium azide (NaN3) and dimethyl sulfoxide (DMSO) were acquired from Merck, Darmstadt, Germany. All solutions were prepared in sterile environment in deionized water at room temperature.
Assay Method: The assay was performed according the protocol of (Sattarahmady N, et al., 2007) with a little modification. […] Each sample solution (200 μL, final reaction volume) in triplicate loaded a 96-wll black fluorescence plate and was incubated for a week at 37° C. in an incubator.

[5] = compound 24 μM, co-incubated with AGEs 200 μg/mL, 24 hours
[6] = compound 33 μM, co-incubated with AGEs 200 μg/mL, 24 hours
[7] = compound 49 μM, co-incubated with AGEs 200 μg/mL, 24 hours

O=C(O)c1ccccc1Nc1ccc([N+](=O)[O-])cc1[N+](=O)[O-] [Compound 1, 2-(2,4-Dinitroanilino)benzoic acid]
inhibition at 24 µM ([1]; Rattus norvegicus, Hepatocyte, compound 24 μM, co-incubated with AGEs 200 μg/mL, 24 hours, read-out: Percentage Inhibition of AGE-induced intracellular ROS generation): 93.4% | inhibition at 33 µM ([1]; Rattus norvegicus, Hepatocyte, compound 33 μM, co-incubated with AGEs 200 μg/mL, 24 hours, read-out: Percentage Inhibition of AGE-induced intracellular ROS generation): 86.9% | inhibition at 49 µM ([1]; Rattus norvegicus, Hepatocyte, compound 49 μM, co-incubated with AGEs 200 μg/mL, 24 hours, read-out: Percentage Inhibition of AGE-induced intracellular ROS generation): 63.2% | Fluorescence (Average) [1, 5]: 90.6 | Fluorescence (Average) [1, 6]: 101.2 | inhibitory influence on the intracellular generation of ROS (in words) ([1]; compound 49 μM, AGE 200 μg/mL): moderate inhibitory influence | Fluorescence (Average) [1, 7]: 139.5 | cytotoxicity [2]: 1.5% | inhibition at 24 µM ([3]; Rattus norvegicus, Hepatocyte, 24 h, compound 24 μM, co-incubated with AGEs 200 μg/mL, 24 hours, read-out: Percentage Inhibition (growth inhibition of hepatocytes)): 12% | inhibition at 33 µM ([3]; Rattus norvegicus, Hepatocyte, 24 h, compound 33 μM, co-incubated with AGEs 200 μg/mL, 24 hours, read-out: Percentage Inhibition (growth inhibition of hepatocytes)): 18.5% | inhibition at 49 µM ([3]; Rattus norvegicus, Hepatocyte, 24 h, compound 49 μM, co-incubated with AGEs 200 μg/mL, 24 hours, read-out: Percentage Inhibition (growth inhibition of hepatocytes)): 18.8% | Percentage Inhibition (growth inhibition of hepatocytes) ([3]; compound 24 μM, co-incubated with AGEs 200 μg/mL, 24 hours, 24 µM): 12.3% | Absorbance (Average) [3, 5]: 1.15 | cytotoxic effect of the AGEs on the hepatocytes in presence of compound (in words) ([3]; compound 33 μM, AGEs 200 μg/mL): no cytotoxic effect | Absorbance (Average) [3, 6]: 1.09 | reducing the toxic effects of the AGEs on the hepatocytes proliferation (in words) ([3]; compound 49 μM, AGEs 200 μg/mL): safe and effective | Absorbance (Average) [3, 7]: 1.08 | inhibition at 1000 µM ([4]; read-out: Antiglycation Activity % Inhibition): 90% | IC50 ([4]; read-out: Antiglycation Activity IC50 ± SEM): 67.2 ± 0.004 µM

— patent US9381182B2, “Anthranilic acid derivatives: novel inhibitors of advanced glycation end-products (AGEs) formation” (priority 2013, dated 2016)
